Values after ≈ are worked out from the molar mass of the structure shown. Where two headings read alike, the source gives them in different places.
Key:
[1] = tested on: M. kansasii 6509/96 (clinical isolate); assay: Antimycobacterial micromethod in Šula's medium, M. kansasii 6509/96; assay type: cell-based; details: Mycobacterium kansasii
[2] = tested on: Trichophyton interdigitale 445; assay: Antifungal microdilution broth method, T. interdigitale; assay type: cell-based
In short: (§1)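 Duplicate microdilution tests in RPMI-1640 (2% glucose, L-glutamine, MOPS, pH 7.0) with twofold compound dilutions from DMSO gave visually determined MICs. Results counted only when duplicates agreed to within one step; protocol adapted from EUCAST.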

Candida glabrata 20/I = assay: Antifungal microdilution broth method, C. glabrata; assay type: cell-based; details: Nakaseomyces glabratus
In short: as §1

[3] = tested on: Mycobacterium avium 330/88; assay: Antimycobacterial micromethod in Šula's medium, M. avium; assay type: cell-based
Trichosporon asahii 1188 = assay: Antifungal microdilution broth method, T. asahii; assay type: cell-based
In short: as §1

[4] = tested on: Candida albicans ATCC 44859; assay: Antifungal microdilution broth method, C. albicans; assay type: cell-based
In short: as §1

[5] = tested on: Aspergillus fumigatus 231; assay: Antifungal microdilution broth method, A. fumigatus; assay type: cell-based
In short: as §1

Candida krusei E28 = assay: Antifungal microdilution broth method, C. krusei; assay type: cell-based; details: Pichia kudriavzevii
In short: as §1

[6] = tested on: Staphylococcus epidermidis H 6966/08; assay: Antibacterial microdilution broth method, S. epidermidis; assay type: cell-based; details: Staphylococcus epidermidis, H6966/08
[7] = tested on: Enterococcus faecalis ATCC 29212, CCM 4224; assay: Antibacterial microdilution broth method, E. faecalis; assay type: cell-based; details: Enterococcus faecalis
[8] = tested on: methicillin-resistant Staphylococcus aureus ATCC 43300, CCM 4750 (MRSA); assay: Antibacterial microdilution broth method, MRSA; assay type: cell-based; details: Staphylococcus aureus
[9] = tested on: Escherichia coli ATCC 25922, CCM 3954; assay: Antibacterial microdilution broth method, E. coli; assay type: cell-based; details: Escherichia coli
[10] = tested on: Mycobacterium kansasii 235/80; assay: Antimycobacterial micromethod in Šula's medium, M. kansasii 235/80; assay type: cell-based
HepG2 cells = assay: Cytotoxicity, CellTiter 96 assay; assay type: cell-based, human; details: Homo sapiens, HepG2, 24 h, 24 h incubation
Protocol: HepG2, human hepatocellular carcinoma cells (ATCC HB-8065; passage 5–8) purchased from Health Protection Agency Culture Collections (ECACC, Salisbury, UK) were cultured in Minimum Essentials Eagle Medium supplemented with 10% fetal bovine serum, 1% L-glutamine solution and non-essential amino acid solution (Sigma-Aldrich, St. Louis, MO, USA) in a humidified atmosphere containing 5% CO2 at 37 °C. For subculturing, the cells were harvested after trypsin/EDTA (Sigma-Aldrich, St. Louis, USA) treatment at 37 °C. To evaluate cytotoxicity, the cells treated with the tested substances were used as experimental groups whereas untreated HepG2 cells served as control groups.
The cells were seeded in a density of 10 000 cells per well in a 96-well plate. The following day the cells were treated with each of the tested substances dissolved in DMSO (maximal incubation concentration of DMSO was 1% v/v). The tested substances were prepared at different incubation concentrations in triplicates according to their solubility. Simultaneously, the controls representing 100% cell viability, 0% cell viability (the cells treated with 10% DMSO), no cell control and vehiculum controls were also involved in triplicates. After 24 h incubation in a humidified atmosphere containing 5% CO2 at 37 °C, the reagent from the kit CellTiter 96 AQueous One Solution Cell Proliferation Assay (CellTiter 96; Promega, Fitchburg, WI, USA) was added. After 2 h incubation at 37 °C absorbance of samples was recorded at 490 nm (TECAN, Infinita M200, Grödig, Austria). A standard toxicological parameter IC50 was calculated by nonlinear regression from a semilogarithmic plot of incubation concentration versus percentage of absorbance relative to untreated controls using GraphPad Prism software (version 6; GraphPad Software, Inc., La Jolla, CA, USA).
The CellTiter 96 assay used is based on the reduction of tetrazolium dye in living cells to formazan, which is then determined colorimetrically. This reduction is related to availability of NADH or NADPH. The decline in levels of these metabolically important compounds in the cell causes that the production of formazan is reduced. For quantitative comparison of cytotoxicity, the parameter IC50 was used.

[11] = tested on: ESBL-positive Klebsiella pneumoniae J 14368/08
[12] = tested on: Lichtheimia corymbifera 272; assay: Antifungal microdilution broth method, L. corymbifera; assay type: cell-based
In short: as §1

[13] = 168 h, 7 days incubation at 37 °C, read-out: MIC M. kansasii 6509/96 7 d
[14] = 336 h, 14 days incubation at 37 °C, read-out: MIC M. kansasii 6509/96 14 d
[15] = 504 h, 21 days incubation at 37 °C, read-out: MIC M. kansasii 6509/96 21 d
[16] = 330/88, 336 h, 14 days incubation at 37 °C, read-out: MIC M. avium 330/88 14 d
[17] = 330/88, 504 h, 21 days incubation at 37 °C, read-out: MIC M. avium 330/88 21 d
[18] = ATCC44859, 24 h, read-out: MIC CA 24 h
[19] = ATCC44859, 48 h, read-out: MIC CA 48 h
[20] = S. epidermidis, 24 h incubation, read-out: MIC SE 24 h
[21] = S. epidermidis, 48 h incubation, read-out: MIC SE 48 h
[22] = 24 h incubation, read-out: MIC EF 24 h
[23] = 48 h incubation, read-out: MIC EF 48 h
[24] = 24 h incubation, read-out: MIC MRSA 24 h
[25] = 48 h incubation, read-out: MIC MRSA 48 h
[26] = 24 h incubation, read-out: MIC EC 24 h
[27] = 48 h incubation, read-out: MIC EC 48 h
[28] = 235/80, 168 h, 7 days incubation at 37 °C, read-out: MIC M. kansasii 235/80 7 d
[29] = 235/80, 336 h, 14 days incubation at 37 °C, read-out: MIC M. kansasii 235/80 14 d
[30] = 235/80, 504 h, 21 days incubation at 37 °C, read-out: MIC M. kansasii 235/80 21 d

| Compound | MIC [1, 13] [µM] | MIC [1, 14] [µM] | MIC [1, 15] [µM] | MIC ([2]; 72 h, read-out: MIC TI 72 h) [µM] | MIC ([2]; 120 h, read-out: MIC TI 120 h) [µM] | MIC (Candida glabrata 20/I; 24 h, read-out: MIC CG 24 h) [µM] | MIC (Candida glabrata 20/I; 48 h, read-out: MIC CG 48 h) [µM] | MIC [3, 16] [µM] | MIC [3, 17] [µM] | MIC (Trichosporon asahii 1188; 24 h, read-out: MIC TA 24 h) [µM] | MIC (Trichosporon asahii 1188; 48 h, read-out: MIC TA 48 h) [µM] | MIC [4, 18] [µM] | MIC [4, 19] [µM] | MIC ([5]; 24 h, read-out: MIC AF 24 h) [µM] | MIC ([5]; 48 h, read-out: MIC AF 48 h) [µM] | MIC (Candida krusei E28; 24 h, read-out: MIC CK 24 h) [µM] | MIC (Candida krusei E28; 48 h, read-out: MIC CK 48 h) [µM] | MIC [6, 20] [µM] | MIC [6, 21] [µM] | MIC [7, 22] [µM] | further results |
| --- | --- | --- | --- | --- | --- | --- | --- | --- | --- | --- | --- | --- | --- | --- | --- | --- | --- | --- | --- | --- | --- |
| O=C(O)c1ccc(N=Cc2c(O)cccc2Cl)cc1 [1k, 4-[(2-Chloro-6-hydroxybenzylidene)amino]benzoic acid] | 250 (≈ 68.9 µg/mL) | 250 (≈ 68.9 µg/mL) | 500 (≈ 138 µg/mL) | 125 (≈ 34.5 µg/mL) | 125 (≈ 34.5 µg/mL) | 125 (≈ 34.5 µg/mL) | 125 (≈ 34.5 µg/mL) | 500 (≈ 138 µg/mL) | 1000 (≈ 276 µg/mL) | 125 (≈ 34.5 µg/mL) | > 125 | 125 (≈ 34.5 µg/mL) | 125 (≈ 34.5 µg/mL) | > 125 | > 125 | 125 (≈ 34.5 µg/mL) | 250 (≈ 68.9 µg/mL) | > 500 | > 500 | > 500 | MIC [7, 23]: > 500 µM; MIC [8, 24]: > 500 µM; MIC [8, 25]: > 500 µM; MIC [9, 26]: > 500 µM; MIC [9, 27]: > 500 µM; MIC [10, 28]: 250 µM (≈ 68.9 µg/mL); MIC [10, 29]: 500 µM (≈ 138 µg/mL); MIC [10, 30]: 500 µM (≈ 138 µg/mL); IC50 (HepG2 cells): 280 µM; MIC KP-E 24 h [11]: >500 µM; MIC KP-E 48 h [11]: >500 µM; MIC ([12]; 24 h, read-out: MIC LC 24 h): > 125 µM; MIC ([12]; 48 h, read-out: MIC LC 48 h): > 125 µM |
| O=C(O)c1ccc(N=Cc2ccc(Cl)cc2O)cc1 [1l, 4-[(4-Chloro-2-hydroxybenzylidene)amino]benzoic acid] | 250 (≈ 68.9 µg/mL) | 250 (≈ 68.9 µg/mL) | 500 (≈ 138 µg/mL) | 500 (≈ 138 µg/mL) | > 500 | 500 (≈ 138 µg/mL) | > 500 | 1000 (≈ 276 µg/mL) | 1000 (≈ 276 µg/mL) | 500 (≈ 138 µg/mL) | > 500 | 250 (≈ 68.9 µg/mL) | > 500 | 250 (≈ 68.9 µg/mL) | > 500 | 500 (≈ 138 µg/mL) | > 500 | > 500 | > 500 | > 500 | MIC [7, 23]: > 500 µM; MIC [8, 24]: > 500 µM; MIC [8, 25]: > 500 µM; MIC [9, 26]: > 500 µM; MIC [9, 27]: > 500 µM; MIC [10, 28]: 250 µM (≈ 68.9 µg/mL); MIC [10, 29]: 500 µM (≈ 138 µg/mL); MIC [10, 30]: 500 µM (≈ 138 µg/mL); IC50 (HepG2 cells): 264 µM; MIC KP-E 24 h [11]: >500 µM; MIC KP-E 48 h [11]: >500 µM; MIC ([12]; 24 h, read-out: MIC LC 24 h): > 500 µM; MIC ([12]; 48 h, read-out: MIC LC 48 h): > 500 µM |
| O=C(O)c1ccc(N=Cc2cccc(Cl)c2O)cc1 [1m, 4-[(3-Chloro-2-hydroxybenzylidene)amino]benzoic acid] | 250 (≈ 68.9 µg/mL) | 500 (≈ 138 µg/mL) | 500 (≈ 138 µg/mL) | 125 (≈ 34.5 µg/mL) | 125 (≈ 34.5 µg/mL) | 62.5 (≈ 17.2 µg/mL) | 62.5 (≈ 17.2 µg/mL) | 1000 (≈ 276 µg/mL) | 1000 (≈ 276 µg/mL) | 125 (≈ 34.5 µg/mL) | 125 (≈ 34.5 µg/mL) | 31.2 (≈ 8.62 µg/mL) | 31.2 (≈ 8.62 µg/mL) | 250 (≈ 68.9 µg/mL) | 250 (≈ 68.9 µg/mL) | 250 (≈ 68.9 µg/mL) | 250 (≈ 68.9 µg/mL) | 500 (≈ 138 µg/mL) | 500 (≈ 138 µg/mL) | > 500 | MIC ([6]; time not stated, read-out: MIC, S. epidermidis): ≥ 250 µM; MIC [7, 23]: > 500 µM; MIC [8, 24]: > 500 µM; MIC [8, 25]: > 500 µM; MIC [9, 26]: > 500 µM; MIC [9, 27]: > 500 µM; MIC [10, 28]: 500 µM (≈ 138 µg/mL); MIC [10, 29]: 500 µM (≈ 138 µg/mL); MIC [10, 30]: 500 µM (≈ 138 µg/mL); IC50 (HepG2 cells): 247 µM; MIC KP-E 24 h [11]: >500 µM; MIC KP-E 48 h [11]: >500 µM; MIC ([12]; 24 h, read-out: MIC LC 24 h): 500 µM (≈ 138 µg/mL); MIC ([12]; 48 h, read-out: MIC LC 48 h): 500 µM (≈ 138 µg/mL) |

Reference: article PMC7023430, “4-Aminobenzoic Acid Derivatives: Converting Folate Precursor to Antimicrobial and Cytotoxic Agents” (Biomolecules, 2019)
